From patent US7160888B2, “[1,8]naphthyridin-2-ones and related compounds for the treatment of schizophrenia” (Warner Lambert Company LLC, priority 2003, dated 2007)

Molecular target: D2 receptor (Homo sapiens, UniProt P14416)
Test: [3H]Thymidine uptake assay for D2 intrinsic activity
Assay type: cell-based
Settings: test compound 1 μM, 1 μM Quinpirole = 100% intrinsic activity

Sequence of D2 receptor (P14416 whole entry): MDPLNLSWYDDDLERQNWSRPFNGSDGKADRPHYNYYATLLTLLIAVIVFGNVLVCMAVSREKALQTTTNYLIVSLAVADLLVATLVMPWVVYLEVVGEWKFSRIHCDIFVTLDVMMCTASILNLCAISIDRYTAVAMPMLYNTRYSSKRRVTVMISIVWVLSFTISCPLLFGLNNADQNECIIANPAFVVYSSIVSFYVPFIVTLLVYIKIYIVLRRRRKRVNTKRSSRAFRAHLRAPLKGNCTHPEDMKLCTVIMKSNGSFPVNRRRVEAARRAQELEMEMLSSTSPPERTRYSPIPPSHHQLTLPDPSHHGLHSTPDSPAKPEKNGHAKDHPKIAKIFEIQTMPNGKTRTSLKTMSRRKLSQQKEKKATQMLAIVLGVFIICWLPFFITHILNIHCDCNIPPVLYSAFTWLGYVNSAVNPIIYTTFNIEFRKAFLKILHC

Question: `O=C1CCc2ccc(OCCCCN3CCN(c4cccc5c4OC4(C=C5)CCCC4)CC3)nc2N1` [Example A7′, 7-{4-[4-(Spiro[chromene-2,1′-cyclopentan]-8-yl)-piperazin-1-yl]-butoxy}-3,4-dihydro-1H-[1,8]naphthyridin-2-one] was tested. Which Emax at 1 µM (Table 2) did it give?
Answer: 34%

Question: How did the Emax at 1 µM (Table 2) turn out when `Cc1cc2c(N3CCN(CCCCOc4ccc5c(n4)NC(=O)CC5)CC3)cccc2[nH]1` [Example A27′, 7-{4-[4-(2-Methyl-1H-indol-4-yl)-piperazin-1-yl]-butoxy}-3,4-dihydro-1H-[1,8]naphthyridin-2-one] was run?
Answer: 21%

Question: With `O=c1ccc2ccc(OCCCCN3CCN(c4ccc(F)c(Cl)c4)CC3)nc2[nH]1` [Example B14, 7-{4-[4-(3-Chloro-4-fluoro-phenyl)-piperazin-1-yl]-butoxy}-1H-[1,8]naphthyridin-2-one] as the compound, how does the Emax at 1 µM (Table 1) read?
Answer: 37%

Question: With `CC1Cc2ccc(OCCCCN3CCN(c4cccc(Cl)c4Cl)CC3)nc2NC1=O` (single isomer, unassigned) [Example D6a, 7-{4-[4-(2,3-Dichloro-phenyl)-piperazin-1-yl]-butoxy}-3-methyl-3,4-dihydro-1H-[1,8]naphthyridin-2-one] as the compound, how does the Emax at 1 µM (Table 1) read?
Answer: 17%

Question: How did the Emax at 1 µM (Table 1) turn out when `O=c1ccc2ccc(OCCCCN3CCN(c4ccc(F)c(Cl)c4Cl)CC3)nc2[nH]1` [Example B24, 7-{4-[4-(2,3-Dichloro-4-fluoro-phenyl)-piperazin-1-yl]-butoxy}-1H-[1,8]naphthyridin-2-one] was run?
Answer: 10%

Question: Which Emax at 1 µM (Table 1) does the source give for `CC1(C)CCc2cccc(N3CCN(CCCCOc4ccc5c(n4)NC(=O)CC5)CC3)c2C1=O` [Example A52, 7-{4-[4-(7,7-Dimethyl-8-oxo-5,6,7,8-tetrahydro-naphthalen-1-yl)-piperazin-1-yl]-butoxy}-3,4-dihydro-1H-[1,8]naphthyridin-2-one] here?
Answer: 32%

Question: For `O=c1ccc2ccc(OCCCN3CCN(c4cccc(Cl)c4Cl)CC3)nc2[nH]1` [Example C1, 7-{3-[4-(2,3-Dichloro-phenyl)-piperazin-1-yl]-propoxy}-1H-[1,8]naphthyridin-2-one], which Emax at 1 µM (Table 1) is on record?
Answer: 43%

Question: How did the Emax at 1 µM (Table 2) turn out when `O=C1NCc2ccc(OCCCCN3CCN(c4cccc5c4OCCC5)CC3)nc2N1` [Example E2′, 7-[4-(4-Chroman-8-yl-piperazin-1-yl)-butoxy]-3,4-dihydro-1H-pyrido[2,3-d]pyrimidin-2-one] was run?
Answer: 9%

Question: `CC(=O)c1ccc2ccccc2c1N1CCN(CCCCOc2ccc3ccc(=O)[nH]c3n2)CC1` [Example B66, 7-{4-[4-(2-Acetyl-naphthalen-1-yl)-piperazin-1-yl]-butoxy}-1H-[1,8]naphthyridin-2-one] was tested. Which Emax at 1 µM (Table 1) did it give?
Answer: 33%

Question: `COc1cccc(N2CCN(CCCCOc3ccc4c(n3)NC(=O)CC4)CC2)c1Cl` [Example A22, 7-{4-[4-(2-Chloro-3-methoxy-phenyl)-piperazin-1-yl]-butoxy}-3,4-dihydro-1H-[1,8]naphthyridin-2-one] was tested. Which Emax at 1 µM (Table 1) did it give?
Answer: 36%

Question: `O=c1ccc2ccc(OCCCCN3CCN(c4cccc5ccoc45)CC3)nc2[nH]1` [Example B26′, 7-[4-(4-Benzofuran-7-yl-piperazin-1-yl)-butoxy]-1H-[1,8]naphthyridin-2-one] was tested. Which Emax at 1 µM (Table 2) did it give?
Answer: 26%

Question: For `O=c1[nH]c2nc(OCCCCN3CCN(c4cccc5ccccc45)CC3)ccc2cc1CC(F)(F)F` [Example D11, 7-[4-(4-Naphthalen-1-yl-piperazin-1-yl)-butoxy]-3-(2,2,2-trifluoro-ethyl)-1H-[1,8]naphthyridin-2-one], which Emax at 1 µM (Table 1) is on record?
Answer: 30%

Question: Which Emax at 1 µM (Table 1) does the source give for `Cc1cc(C)nc(N2CCN(CCCCCc3ccc4c(n3)NC(=O)CC4)CC2)c1` [Example C19, 7-{5-[4-(4,6-Dimethyl-pyridin-2-yl)-piperazin-1-yl]-pentyl}-3,4-dihydro-1H-[1,8]naphthyridin-2-one] here?
Answer: 13%

Question: With `O=C1CCc2c(C(F)(F)F)cc(OCCCCN3CCN(c4cccc5c4CCC5)CC3)nc2N1` [Example E13, 7-[4-(4-Indan-4-yl-piperazin-1-yl)-butoxy]-5-trifluoromethyl-3,4-dihydro-1H-[1,8]naphthyridin-2-one] as the compound, how does the Emax at 1 µM (Table 1) read?
Answer: 11%

Question: `O=C1CCc2ccc(OCCCCN3CCN(c4cccc5[nH]c(=O)oc45)CC3)nc2N1` [Example A1′, 7-{4-[4-(2-Oxo-2,3-dihydro-benzooxazol-7-yl)-piperazin-1-yl]-butoxy}-3,4-dihydro-1H-[1,8]naphthyridin-2-one] was tested. Which Emax at 1 µM (Table 2) did it give?
Answer: 73%

Question: Which Emax at 1 µM (Table 1) does the source give for `COc1cccc(N2CCN(CCCCOc3ccc4ccc(=O)[nH]c4n3)CC2)c1Cl` [Example B18, 7-{4-[4-(2-Chloro-3-methoxy-phenyl)-piperazin-1-yl]-butoxy}-1H-[1,8]naphthyridin-2-one] here?
Answer: 32%

Question: `O=c1ccc2cnc(OCCCCN3CCN(c4cccc5c4CCC5)CC3)nc2[nH]1` [Example H3, 2-[4-(4-Indan-4-yl-piperazin-1-yl)-butoxy]-8H-pyrido[2,3-d]pyrimidin-7-one] was tested. Which Emax at 1 µM (Table 1) did it give?
Answer: 25%

Question: `O=C1CCc2ccc(OCCCCN3CCN(c4cccc5nonc45)CC3)nc2N1` [Example A29′, 7-[4-(4-Benzo[1,2,5]oxadiazol-4-yl-piperazin-1-yl)-butoxy]-3,4-dihydro-1H-[1,8]naphthyridin-2-one] was tested. Which Emax at 1 µM (Table 2) did it give?
Answer: 33%

Question: For `CC(=O)c1ccc2cccc(N3CCN(CCCCOc4ccc5ccc(=O)[nH]c5n4)CC3)c2c1` [Example B62, 7-{4-[4-(7-Acetyl-naphthalen-1-yl)-piperazin-1-yl]-butoxy}-1H-[1,8]naphthyridin-2-one], which Emax at 1 µM (Table 1) is on record?
Answer: 21%

Question: With `CC1(C)Cc2cccc(N3CCN(CCCCOc4ncc5ccc(=O)[nH]c5n4)CC3)c2O1` [Example G8′, 2-{4-[4-(2,2-Dimethyl-2,3-dihydro-benzofuran-7-yl)-piperazin-1-yl]-butoxy}-8H-pyrido[2,3-d]pyrimidin-7-one] as the compound, how does the Emax at 1 µM (Table 2) read?
Answer: 32%

Question: How did the Emax at 1 µM (Table 1) turn out when `O=c1ccc2ccc(OCCCCN3CCN(c4ccc(F)cc4)CC3)nc2[nH]1` [Example B13, 7-{4-[4-(4-Fluoro-phenyl)-piperazin-1-yl]-butoxy}-1H-[1,8]naphthyridin-2-one] was run?
Answer: 45%

Question: For `O=C1CCc2ccc(OCCCCN3CCN(c4ccc(F)cc4F)CC3)nc2N1` [Example A41, 7-{4-[4-(2,4-Difluoro-phenyl)-piperazin-1-yl]-butoxy}-3,4-dihydro-1H-[1,8]naphthyridin-2-one], which Emax at 1 µM (Table 1) is on record?
Answer: 28%

Question: Which Emax at 1 µM (Table 1) does the source give for `O=C1CCc2cnc(CCCCCN3CCN(c4cccc(Cl)c4Cl)CC3)cc2N1` [Example I1, 7-{5-[4-(2,3-Dichloro-phenyl)-piperazin-1-yl]-pentyl}-3,4-dihydro-1H-[1,6]naphthyridin-2-one] here?
Answer: 17%

Question: Which Emax at 1 µM (Table 1) does the source give for `CCc1c(Cl)cccc1N1CCN(CCCCOc2ccc3ccc(=O)[nH]c3n2)CC1` [Example B4, 7-{4-[4-(3-Chloro-2-ethyl-phenyl)-piperazin-1-yl]-butoxy}-1H-[1,8]naphthyridin-2-one] here?
Answer: 22%

Question: `CC1(C)CC(=O)Nc2nc(OCCCCN3CCN(c4cccc(Cl)c4Cl)CC3)ccc21` [Example D17, 7-{4-[4-(2,3-Dichloro-phenyl)-piperazin-1-yl]-butoxy}-4,4-dimethyl-3,4-dihydro-1H-[1,8]naphthyridin-2-one] was tested. Which Emax at 1 µM (Table 1) did it give?
Answer: 29%

Question: Which Emax at 1 µM (Table 1) does the source give for `CC(=O)c1ccc(N2CCN(CCCCOc3ccc4c(n3)NC(=O)CC4)CC2)c2ccccc12` [Example A81, 7-{4-[4-(4-Acetyl-naphthalen-1-yl)-piperazin-1-yl]-butoxy}-3,4-dihydro-1H-[1,8]naphthyridin-2-one] here?
Answer: 4%

Question: `O=c1ccc2ccc(OCCCCN3CCN(c4cccc5c4CCC5)CC3)nc2[nH]1` [Example B32, 7-[4-(4-Indan-4-yl-piperazin-1-yl)-butoxy]-1H-[1,8]naphthyridin-2-one] was tested. Which Emax at 1 µM (Table 1) did it give?
Answer: 19%
